A short description of data set [1]: Half life in human plasma at 2.05 mg/mL. It counts as ADME, cell-free.
A short description of data set [2]: n-octanol-phosphate buffer apparent distribution coefficient, log D of the compound at pH 7.4 by shake flask method. The format is physicochemical.
Data set [3] in a line: Half life in Sprague-Dawley rat brain homogenate at 2.075 mg/mL. It counts as ADME, tissue-based.

The source of these data is ChEMBL document CHEMBL3875156, “Design, synthesis and preliminary evaluation of dopamine-amino acid conjugates as potential D1 dopaminergic modulators” (Eur J Med Chem, 2016).

As for `N[C@@H](Cc1c[nH]c2ccccc12)C(=O)NCCc1ccc(O)c(O)c1`, the results for the half-life in data set [1] and in data set [3] were 2 h and 1.33 h, respectively. The logD in data set [2] amounted to 0.5.

On to `CC(C)C[C@H](N)C(=O)NCCc1ccc(O)c(O)c1`, for which the half-life is 0.767 h in data set [1] and 3.22 h in data set [3]. Moreover, in data set [2], the logD is 0.18.

A word on the half-life: it is how long it takes for the measured level to halve. What is called logD is lipophilicity at a set pH, counting ionised and neutral species.
